Assay results from patent publication US20140336218A1, “ARFORMOTEROL AND TIOTROPIUM COMPOSITIONS AND METHODS FOR USE” (priority 2008, published 2014).

Legend:
COPD patients [1] = assay: Transition Dyspnea Index (TDI) in 2-week clinical trial; assay type: in vivo, human; conditions: for Patients with change ≧1 unit (TDI), n (%) / TDI, mean (SD) / Patients with change of ≧1 unit (TDI), n (%) / Difference between combined therapy and mono-therapies in TDI, LS mean / Patients with change of ≧1 unit (TDI), %: week 2; for Patients with change of ≧1 unit (TDI), %: cells print n (%); for improvement in TDI: patients with <50% predicted FEV1 at baseline
Description: (§1) This was a 2-week, prospective, multi-center (34 sites), randomized, modified blind, double dummy, parallel group study designed to evaluate the efficacy and safety of the combination of arformoterol 15 μg BID and tiotropium 18 μg QD (dosed sequentially) versus the individual mono-therapies in the treatment of COPD patients. The study was conducted according to the principles established by the Declaration of Helsinki (see, e.g., World Medical Association Declaration of Helsinki. Recommendations guiding physicians in biomedical research involving human subjects. JAMA 1997; 277:925-926.). Appropriate Institutional Review boards approved the protocol and written informed consent was obtained from the patients.
(§2) Eligible patients were randomized to receive one of three treatments for 14 days: nebulized arformoterol 15 μg (Brovana®, Sepracor Inc., Marlborough, Mass.) BID and placebo DPI QD, nebulized placebo BID and tiotropium 18 μg (Spriva® HandiHaler® Boehringer Ingelheim, Ridgefield, Conn.) DPI QD, or nebulized arformoterol 15 μg BID and tiotropium 18 μg DPI QD. The nebulized drug was administered first using the PARI LC Plus® nebulizer driven by the Duraneb 3000® compressor (Pari: Pari Respiratory Equipment Inc., Midlothian, Va.) at a flow rate of 3.3 L/minute followed (within 5 minutes) by the DPI administration (HandiHaler®). The tiotropium and placebo DPI capsules were identical in size and shape but differed in color.
At screening, the Baseline Dyspnea Index (BDI) (see, e.g., Mahler D A, Weinberg D H, Wells C K, Feinstein A R. The measurement of dyspnea. Contents, interobserver agreement, and physiologic correlates of two new clinical indexes. Chest 1984; 85:751-758; herein incorporated in its entirety by reference) was assessed prior to the first clinic dose, and at week 2 the Transition Dyspnea Index (see id.) was evaluated before first morning dose. The baseline focal score (range 0 to 12) and the transition focal score (range −9 to 9) were the sums of the functional impairment, magnitude of task, and magnitude of effort scores (see id.). Higher scores indicate less dyspnea at baseline (BDI) or greater improvement in dyspnea from baseline (TDI).
The study was designed to detect a mean treatment difference of time normalized FEV1AUC over 24 hours (FEV1AUC0-24) (the primary endpoint) of 0.075 L with a standard deviation of 0.016 L when comparing combined therapy with mono-therapy, using a two-sided 5% significance level, following 2-weeks of dosing for the primary comparison with 80% power. All efficacy analyses were performed on the ITT population. All statistical testing was 2-tailed and conducted at the 5% significance level, unless otherwise indicated. […] To control for multiple comparisons, statistical tests of mean treatment group differences were considered significant if the overall treatment effect in the model was statistically significant at the 5% level. Pulmonary function severity subgroup analysis was performed post hoc by stratifying patients according to the GOLD COPD guidelines (see, e.g., Pauwels R A, Buist A S, Calverley P M, Jenkins C R, Hurd S S. Global strategy for the diagnosis, management, and prevention of chronic obstructive pulmonary disease. NHLBI/WHO Global Initiative for Chronic Obstructive Lung Disease (GOLD) Workshop summary. Am J Respir Crit Care Med 2001; 163:1256-1276;; herein incorporated in its entirety by reference) (<30%, ≧30% to <50%, and ≧50%, respectively). Pairwise comparisons between treatment groups were performed using least square means (LS means) from the linear model with the study baseline (or predose where applicable) as a covariate and the treatment group as a fixed effect.

COPD patients [2] = assay: Inspiratory capacity in 2-week clinical trial; assay type: in vivo, human; conditions: for Mean (SD) inspiratory capacity improvement from baseline: 2-hours post-dosing; for Difference in trough FEV1 between combined therapy and mono-therapies, LS mean / Change in trough inspiratory capacity, mean (SD): ITT; for Difference in trough FEV1 between combined therapy and mono-therapies, LS mean / Change in trough inspiratory capacity, mean (SD) / Difference between combined therapy and mono-therapies in change in inspiratory capacity, LS mean: week 2; for Difference in trough FEV1 between combined therapy and mono-therapies, LS mean: printed below the trough inspiratory capacity line, combined therapy versus the mono-therapy; for Change in trough inspiratory capacity, mean (SD): trough = 24 hour time point after morning dose; for Difference between combined therapy and mono-therapies in change in inspiratory capacity, LS mean: combined versus the mono-therapy; for Change in Inspiratory Capacity, mean (SD): week 2 from study baseline
Description: as §1, §2
At week 0 and week 2, medical event calendars and blood samples were collected and vital signs and heart measurements analyzed. At week 0, spirometry was performed pre-morning dose, immediately (within 5 minutes) and at 30 minutes, 1, 2, 4, 6, 8, 10, and 12 hours post-first dose. After the 12-hour pulmonary function test patients self-administered the evening dose of study medication. At week 2, serial spirometry was also performed as at week 0, as well as immediately (within 5 minutes) following the evening dose (administered 12 hours after the morning dose) and 12.5, 13, 14, 16, 23, and 24 hours post-morning dose. Inspiratory capacity was evaluated pre-dose and at 2 hours post-morning dose at week 0, and pre-dose and 2, 11, 14, and 24 hours post-morning dose at week 2. All inspiratory capacity measurements were the mean of acceptable inspiratory capacity maneuvers, two of which were reproducible. Prior to an inspiratory capacity maneuver a patient had to have a stable expiratory level for about 10 breaths. Once the stable level was achieved, at the end of exhalation of a normal breath the patient was asked to make a steady and full inhalation at normal inspiratory flow rates until the lungs were completely full, and then to exhale at a normal rate.
All pulmonary function values used were the highest among the three acceptable maneuvers. The Investigator ensured that all spirometry was performed in accordance with the American Thoracic Society/European Respiratory Society Standardisation of Spirometry guidelines (see, e.g., Miller M R, Hankinson J, Brusasco V, Burgos F, Casaburi R, Coates A, et al. Standardisation of spirometry. Eur Respir J 2005; 26:319-338; herein incorporated in its entirety by reference). Centralized over-reading of spirometry and inspiratory capacity pulmonary function measures were used for quality control.
The study was designed to detect a mean treatment difference of time normalized FEV1AUC over 24 hours (FEV1AUC0-24) (the primary endpoint) of 0.075 L with a standard deviation of 0.016 L when comparing combined therapy with mono-therapy, using a two-sided 5% significance level, following 2-weeks of dosing for the primary comparison with 80% power. All efficacy analyses were performed on the ITT population. All statistical testing was 2-tailed and conducted at the 5% significance level, unless otherwise indicated.

[3] = ITT, transition focal score range −9 to 9
[4] = baseline percent predicted FEV1 <50%
[5] = baseline percent predicted FEV1 <50%, combined versus the mono-therapy
[6] = baseline percent predicted FEV1 ≧50%
[7] = baseline percent predicted FEV1 ≧50%, combined versus the mono-therapy

| Compound | Patients with change ≧1 unit (TDI), n (%) (COPD patients [1]; ITT) | TDI, mean (SD) (COPD patients [1]; [3]) | Patients with change of ≧1 unit (TDI), n (%) (COPD patients [1]; [4]) | TDI, mean (SD) (COPD patients [1]; [4]) | Difference between combined therapy and mono-therapies in TDI, LS mean (COPD patients [1]; [5]) | TDI, mean (SD) (COPD patients [1]; [6]) | Patients with change of ≧1 unit (TDI), % (COPD patients [1]; [6]) | Difference between combined therapy and mono-therapies in TDI, LS mean (COPD patients [1]; [7]) | improvement in TDI (COPD patients [1]) [units] | Mean (SD) inspiratory capacity improvement from baseline (COPD patients [2]) [L] | Difference in trough FEV1 between combined therapy and mono-therapies, LS mean (COPD patients [2]) [L] | Change in trough inspiratory capacity, mean (SD) (COPD patients [2]) | Difference between combined therapy and mono-therapies in change in inspiratory capacity, LS mean (COPD patients [2]; [4]) [L] | Change in Inspiratory Capacity, mean (SD) (COPD patients [2]; [4]) | Difference between combined therapy and mono-therapies in change in inspiratory capacity, LS mean (COPD patients [2]; [6]) [L] | Change in Inspiratory Capacity, mean (SD) (COPD patients [2]; [6]) | Difference between combined therapy and mono-therapies in TDI, LS mean (COPD patients [1]; ITT, combined therapy versus the mono-therapy) [L] |
| --- | --- | --- | --- | --- | --- | --- | --- | --- | --- | --- | --- | --- | --- | --- | --- | --- | --- |
| COc1ccc(C[C@@H](C)NC[C@H](O)c2ccc(O)c(NC=O)c2)cc1 [Arformoterol] | 50 (66.7) n (%) | 2.3 (2.4) | 34 (72.3) n (%) | 2.3 (2.3) | 1.3 | 2.3 (2.6) | 17 (57.1) % | 0.2 | 2.3 | 0.20 | 0.07 | 0.07 (0.30) L | 0.08 | 0.12 (0.31) L | 0.06 | −0.01 (0.27) L |  |
| C[N+]1(C)[C@@H]2C[C@@H](OC(=O)C(O)(c3cccs3)c3cccs3)C[C@H]1[C@@H]1O[C@@H]12 [Tiotropium] | 44 (57.1) n (%) | 1.8 (2.8) | 25 (52.1) n (%) | 1.6 (3.0) | 2.0 | 2.3 (2.5) | 19 (67.9) % | 0.3 | 1.6 | 0.19 | 0.12 | 0.02 (0.29) L | 0.17 | 0.02 (0.27) L | 0.02 | 0.04 (0.33) L | 1.3 |
